System: MV-4-11 cells
Test: Gene expression microarray analysis (Affymetrix PrimeView) and GSEA
Type: cell-based, human
Set-up: RFU PODN (11730768_x_at) / Fold change /veh PODN (11730768_x_at) / RFU LINC00158 (11744669_a_at) / Fold change /veh LINC00158 (11744669_a_at) / RFU DUSP10 (11751237_a_at) / Fold change /veh DUSP10 (11751237_a_at) / RFU ID3 (11757404_x_at) / Fold change /veh ID3 (11757404_x_at) / RFU PLEKHG5 (11737974_s_at) / Fold change /veh PLEKHG5 (11737974_s_at) / RFU LRRC4B (11730491_at) / Fold change /veh LRRC4B (11730491_at) / RFU GIMAP4 (11747438_a_at) / Fold change /veh GIMAP4 (11747438_a_at) / RFU KRT8 (11758183_x_at) / Fold change /veh KRT8 (11758183_x_at) / RFU CNN1 (11734310_a_at) / Fold change /veh CNN1 (11734310_a_at) / RFU VPS37D (11726825_at) / Fold change /veh VPS37D (11726825_at) / RFU C10orf10 (11716522_x_at) / Fold change /veh C10orf10 (11716522_x_at) / RFU KIR2DL2 /// KIR2DL4 /// KIR2DL5A /// KIR2DL5B /// KIR2DS1 /// KIR2DS2 /// KIR2DS3 /// KIR2DS4 /// KIR3DL3 /// KIR3DL3 /// KIR3DS1 (11738374_at) / Fold change /veh KIR2DL2 /// KIR2DL4 /// KIR2DL5A /// KIR2DL5B /// KIR2DS1 /// KIR2DS2 /// KIR2DS3 /// KIR2DS4 /// KIR3DL3 /// KIR3DL3 /// KIR3DS1 (11738374_at) / RFU C1QL1 (11718748_at) / Fold change /veh C1QL1 (11718748_at) / RFU TMPRSS4 (11747572_a_at) / Fold change /veh TMPRSS4 (11747572_a_at) / RFU HAMP (11756126_x_at) / Fold change /veh HAMP (11756126_x_at) / RFU RNFT2 (11725882_a_at) / Fold change /veh RNFT2 (11725882_a_at) / RFU NR4A2 (11747474_a_at) / Fold change /veh NR4A2 (11747474_a_at) / RFU ABCC12 (11746883_a_at) / Fold change /veh ABCC12 (11746883_a_at) / RFU TMEM136 (11760407_x_at) / Fold change /veh TMEM136 (11760407_x_at) / RFU CLDN22 /// WWC2 (11732394_at) / Fold change /veh CLDN22 /// WWC2 (11732394_at) / RFU HLA-DPB1 (11760878_x_at) / Fold change /veh HLA-DPB1 (11760878_x_at) / RFU SPINT1 (11716480_a_at) / Fold change /veh SPINT1 (11716480_a_at) / RFU GAP43 (11754022_s_at) / Fold change /veh GAP43 (11754022_s_at) / RFU A4GNT (11735810_at) / Fold change /veh A4GNT (11735810_at) / RFU PRB3 (11715151_x_at) / Fold change /veh PRB3 (11715151_x_at) / RFU TUBB4B (11761932_at) / Fold change /veh TUBB4B (11761932_at) / RFU CAPN14 (11732068_a_at) / Fold change /veh CAPN14 (11732068_a_at) / RFU TMCC2 (11721928_a_at) / Fold change /veh TMCC2 (11721928_a_at) / RFU IRGQ (11745062_a_at) / Fold change /veh IRGQ (11745062_a_at) / RFU FAM174B (11720279_a_at) / Fold change /veh FAM174B (11720279_a_at) / RFU TMPRSS4 (11748680_a_at) / Fold change /veh TMPRSS4 (11748680_a_at) / RFU FAM212B (11763350_a_at) / Fold change /veh FAM212B (11763350_a_at) / RFU PLEKHG5 (11743358_a_at) / Fold change /veh PLEKHG5 (11743358_a_at) / RFU ZSCAN30 (11745921_a_at) / Fold change /veh ZSCAN30 (11745921_a_at) / RFU CMKLR1 (11741424_a_at) / Fold change /veh CMKLR1 (11741424_a_at) / RFU LOC101060620 /// MAPK8IP1 (11723275_at) / Fold change /veh LOC101060620 /// MAPK8IP1 (11723275_at) / RFU SPTSSB (11747773_x_at) / Fold change /veh SPTSSB (11747773_x_at) / RFU PRSS12 (11739890_at) / Fold change /veh PRSS12 (11739890_at) / RFU BIN1 (11741810_x_at) / Fold change /veh BIN1 (11741810_x_at) / RFU WNT11 (11732464_a_at) / Fold change /veh WNT11 (11732464_a_at) / RFU C10orf10 (11716521_a_at) / Fold change /veh C10orf10 (11716521_a_at) / RFU C5orf56 (11738089_at) / Fold change /veh C5orf56 (11738089_at) / RFU CYB561 (11721691_x_at) / Fold change /veh CYB561 (11721691_x_at) / RFU ANKRD19P (11752326_a_at) / Fold change /veh ANKRD19P (11752326_a_at) / RFU OR2T12 /// OR2T33 /// OR2T8 (11738714_s_at) / Fold change /veh OR2T12 /// OR2T33 /// OR2T8 (11738714_s_at) / RFU VCAN (11748164_a_at) / Fold change /veh VCAN (11748164_a_at) / RFU JSRP1 (11732532_at) / Fold change /veh JSRP1 (11732532_at) / RFU KRTAP10-11 (11738290_x_at) / Fold change /veh KRTAP10-11 (11738290_x_at) / RFU MYO3A (11730013_a_at) / Fold change /veh MYO3A (11730013_a_at) / RFU EBF3 (11725865_a_at) / Fold change /veh EBF3 (11725865_a_at) / RFU CAMK2N1 (11719241_x_at) / Fold change /veh CAMK2N1 (11719241_x_at) / RFU C5orf56 (11738088_a_at) / Fold change /veh C5orf56 (11738088_a_at) / RFU OLFML3 (11715873_a_at) / Fold change /veh OLFML3 (11715873_a_at) / RFU LOC100653217 /// NTM (11731650_a_at) / Fold change /veh LOC100653217 /// NTM (11731650_a_at) / RFU MAPK11 (11762145_a_at) / Fold change /veh MAPK11 (11762145_a_at) / RFU FIZ1 (11724087_x_at) / Fold change /veh FIZ1 (11724087_x_at) / RFU OASL (11726364_x_at) / Fold change /veh OASL (11726364_x_at) / RFU SOX15 (11748057_x_at) / Fold change /veh SOX15 (11748057_x_at) / RFU CD79A (11719716_a_at) / Fold change /veh CD79A (11719716_a_at) / RFU HIST1H1D (11736915_at) / Fold change /veh HIST1H1D (11736915_at) / RFU CASKIN2 (11723855_a_at) / Fold change /veh CASKIN2 (11723855_a_at) / RFU LOC730098 (11760151_x_at) / Fold change /veh LOC730098 (11760151_x_at) / RFU OR4N2 (11742367_at) / Fold change /veh OR4N2 (11742367_at) / RFU PRRT2 (11749266_a_at) / Fold change /veh PRRT2 (11749266_a_at) / RFU SNX32 (11753110_a_at) / Fold change /veh SNX32 (11753110_a_at) / RFU CDHR5 (11726645_a_at) / Fold change /veh CDHR5 (11726645_a_at) / RFU RCAN1 (11760418_a_at) / Fold change /veh RCAN1 (11760418_a_at) / RFU FAM167A (11723789_a_at) / Fold change /veh FAM167A (11723789_a_at) / RFU FAM26E (11764081_at) / Fold change /veh FAM26E (11764081_at) / RFU ISYNA1 (11749810_s_at) / Fold change /veh ISYNA1 (11749810_s_at) / RFU ACY1 (11761880_at) / Fold change /veh ACY1 (11761880_at) / RFU 11764098_at / Fold change /veh 11764098_at / RFU SAMD14 (11745864_x_at) / Fold change /veh SAMD14 (11745864_x_at) / RFU NPB (11741838_a_at) / Fold change /veh NPB (11741838_a_at) / RFU TMPRSS6 (11731388_a_at) / Fold change /veh TMPRSS6 (11731388_a_at) / RFU KRTAP10-2 (11738614_at) / Fold change /veh KRTAP10-2 (11738614_at) / RFU ARHGAP8 /// PRR5-ARHGAP8 (11727945_x_at) / Fold change /veh ARHGAP8 /// PRR5-ARHGAP8 (11727945_x_at) / RFU KRTAP5-7 /// NADSYN1 (11734609_at) / Fold change /veh KRTAP5-7 /// NADSYN1 (11734609_at) / RFU RASL12 (11751679_a_at) / Fold change /veh RASL12 (11751679_a_at) / RFU CDKN2B (11736163_a_at) / Fold change /veh CDKN2B (11736163_a_at) / RFU PRF1 (11729649_at) / Fold change /veh PRF1 (11729649_at) / RFU, ZNF638 /// ZNF638-IT1 / Fold change vs veh, ZNF638 /// ZNF638-IT1 / RFU, PANK3 / Fold change vs veh, PANK3 / RFU, SH3YL1 / Fold change vs veh, SH3YL1 / RFU, ZEB2 / Fold change vs veh, ZEB2 / RFU, NRIP1 / Fold change vs veh, NRIP1 / RFU, PTTG1IP / Fold change vs veh, PTTG1IP / RFU, CAPN2 / Fold change vs veh, CAPN2 / RFU, MED14 / Fold change vs veh, MED14 / RFU, SNORA58 / Fold change vs veh, SNORA58 / RFU, C1orf63 / Fold change vs veh, C1orf63 / RFU, LRRFIP1 / Fold change vs veh, LRRFIP1 / RFU, NDUFAF7 / Fold change vs veh, NDUFAF7 / RFU, SLC12A2 / Fold change vs veh, SLC12A2 / RFU, IBTK / Fold change vs veh, IBTK / RFU, ESF1 / Fold change vs veh, ESF1 / Fold change vs veh, TMEM50B / RFU, TAOK1 / Fold change vs veh, TAOK1 / RFU, ACBD3 / Fold change vs veh, ACBD3 / RFU, TMA16 / Fold change vs veh, TMA16 / RFU, RWDD3 / Fold change vs veh, RWDD3 / RFU, BCAT1 / Fold change vs veh, BCAT1 / RFU, EDEM3 / Fold change vs veh, EDEM3 / RFU, TMEM33 / Fold change vs veh, TMEM33 / RFU, WDR75 / Fold change vs veh, WDR75 / RFU, AHCTF1 / Fold change vs veh, AHCTF1 / RFU, TFRC / Fold change vs veh, TFRC / RFU, ZDHHC17 / Fold change vs veh, ZDHHC17 / RFU, NOM1 / Fold change vs veh, NOM1 / RFU, ARL8B / Fold change vs veh, ARL8B / RFU, ZBTB11 / Fold change vs veh, ZBTB11 / RFU, TAMM41 / Fold change vs veh, TAMM41 / RFU, KIAA1704 /// LOC100996395 / Fold change vs veh, KIAA1704 /// LOC100996395 / RFU, ING1 / Fold change vs veh, ING1 / RFU, TRMT61B / Fold change vs veh, TRMT61B / RFU, FUBP3 / Fold change vs veh, FUBP3 / RFU, TP53 / Fold change vs veh, TP53 / RFU, TNKS2 / Fold change vs veh, TNKS2 / RFU, ZFP14 / Fold change vs veh, ZFP14 / RFU, ACTR2 / Fold change vs veh, ACTR2 / RFU, PPP3R1 / Fold change vs veh, PPP3R1 / RFU, PIK3R1 / Fold change vs veh, PIK3R1 / RFU, HNRNPA1 / Fold change vs veh, HNRNPA1 / RFU, RNF170 / Fold change vs veh, RNF170 / RFU, ZNF28 / Fold change vs veh, ZNF28 / RFU, RNGTT / Fold change vs veh, RNGTT / RFU, OGT / Fold change vs veh, OGT / RFU, BRD1 / Fold change vs veh, BRD1 / RFU, MARS / Fold change vs veh, MARS / RFU, ZNF655 / Fold change vs veh, ZNF655 / RFU, FAHD1 / Fold change vs veh, FAHD1 / RFU, BDP1 / Fold change vs veh, BDP1 / RFU, LRRCC1 / Fold change vs veh, LRRCC1 / RFU, ARID1A / Fold change vs veh, ARID1A / RFU, ZNF146 / Fold change vs veh, ZNF146 / RFU, ZNF330 / Fold change vs veh, ZNF330 / RFU, GPN3 / Fold change vs veh, GPN3 / RFU, C9orf123 / Fold change vs veh, C9orf123 / RFU, N4BP2L2 / Fold change vs veh, N4BP2L2 / RFU, ARFIP1 / Fold change vs veh, ARFIP1 / RFU, FAM179B / Fold change vs veh, FAM179B / RFU, BCL10 / Fold change vs veh, BCL10 / RFU, UHRF1BP1L / Fold change vs veh, UHRF1BP1L / RFU, BET1 / Fold change vs veh, BET1 / RFU, CNOT2 / Fold change vs veh, CNOT2 / RFU, ZNF268 / Fold change vs veh, ZNF268 / Fold change vs veh, ZNF507 / RFU, DGCR2 / Fold change vs veh, DGCR2 / RFU, WDSUB1 / Fold change vs veh, WDSUB1 / Fold change vs veh, HSP90B1 /// MIR3652 / RFU, ADSS / Fold change vs veh, ADSS / RFU, GK / Fold change vs veh, GK / RFU, ZNF148 / Fold change vs veh, ZNF148 / RFU, TAF9 / Fold change vs veh, TAF9 / RFU, SLC1A5 / Fold change vs veh, SLC1A5 / RFU, SLMO2 / Fold change vs veh, SLMO2 / RFU, ABCC4 / Fold change vs veh, ABCC4 / RFU, LOC101060439 /// RAP1B / Fold change vs veh, LOC101060439 /// RAP1B / RFU, RFX7 / Fold change vs veh, RFX7 / RFU, GTPBP10 / Fold change vs veh, GTPBP10 / RFU, CNEP1R1 / Fold change vs veh, CNEP1R1 / RFU, BIVM-ERCC5 /// ERCC5 / Fold change vs veh, BIVM-ERCC5 /// ERCC5 / RFU, ILF3 / Fold change vs veh, ILF3 / RFU 11762660_at / Fold change /veh 11762660_at / RFU VCAN (11757783_s_at) / Fold change /veh VCAN (11757783_s_at) / RFU DDX43 (11728927_at) / Fold change /veh DDX43 (11728927_at) / RFU KRT8 (11758188_x_at) / Fold change /veh KRT8 (11758188_x_at) / RFU NKD1 (11759106_at) / Fold change /veh NKD1 (11759106_at) / RFU SRD5A1 (11742802_a_at) / Fold change /veh SRD5A1 (11742802_a_at) / RFU TPSAB1 /// TPSB2 (11721975_s_at) / Fold change /veh TPSAB1 /// TPSB2 (11721975_s_at) / RFU GSTM3 (11746129_a_at) / Fold change /veh GSTM3 (11746129_a_at) / RFU IL23R (11737362_x_at) / Fold change /veh IL23R (11737362_x_at) / RFU TMEM51 (11727254_a_at) / Fold change /veh TMEM51 (11727254_a_at) / RFU PIWIL2 (11732686_x_at) / Fold change /veh PIWIL2 (11732686_x_at) / RFU ORM1 (11744905_x_at) / Fold change /veh ORM1 (11744905_x_at) / RFU CCDC152 (11743942_at) / Fold change /veh CCDC152 (11743942_at) / RFU ECM1 (11717891_a_at) / Fold change /veh ECM1 (11717891_a_at) / RFU IL23R (11748794_a_at) / Fold change /veh IL23R (11748794_a_at) / RFU TNFAIP8L3 (11732012_x_at) / Fold change /veh TNFAIP8L3 (11732012_x_at) / RFU MBOAT4 (11741988_at) / Fold change /veh MBOAT4 (11741988_at) / RFU 11764193_at / Fold change /veh 11764193_at / RFU TMEM53 (11763286_at) / Fold change /veh TMEM53 (11763286_at) / RFU MAGEB2 (11727129_at) / Fold change /veh MAGEB2 (11727129_at) / RFU TMEM200A (11744735_a_at) / Fold change /veh TMEM200A (11744735_a_at) / RFU CCDC152 (11751479_a_at) / Fold change /veh CCDC152 (11751479_a_at) / RFU FAM211A (11726209_a_at) / Fold change /veh FAM211A (11726209_a_at) / RFU RGS16 (11746705_a_at) / Fold change /veh RGS16 (11746705_a_at) / RFU VCAN (11755009_s_at) / Fold change /veh VCAN (11755009_s_at) / RFU RHOB (11743442_s_at) / Fold change /veh RHOB (11743442_s_at) / RFU RGS16 (11720943_a_at) / Fold change /veh RGS16 (11720943_a_at) / RFU RGS16 (11720944_at) / Fold change /veh RGS16 (11720944_at) / RFU, VPS4B / Fold change vs veh, VPS4B / RFU, CREB1 / Fold change vs veh, CREB1 / RFU, DNAJC13 / Fold change vs veh, DNAJC13 / RFU, GNAQ / Fold change vs veh, GNAQ / RFU, CDK5R1 / Fold change vs veh, CDK5R1 / RFU, ZRANB3 / Fold change vs veh, ZRANB3 / RFU, CUL4A / Fold change vs veh, CUL4A / RFU, CCNY / Fold change vs veh, CCNY / RFU, UFL1 / Fold change vs veh, UFL1 / RFU, COG3 / Fold change vs veh, COG3 / RFU, DIAPH2 / Fold change vs veh, DIAPH2 / RFU, SKA2 / Fold change vs veh, SKA2 / RFU, AFF3 / Fold change vs veh, AFF3 / RFU, LMF1 / Fold change vs veh, LMF1 / RFU, IPO11 / Fold change vs veh, IPO11 / RFU, DFFB / Fold change vs veh, DFFB / RFU, FOXP1 / Fold change vs veh, FOXP1 / RFU, CARD8 / Fold change vs veh, CARD8 / RFU, STRN3 / Fold change vs veh, STRN3 / RFU, ADK / Fold change vs veh, ADK / RFU, RASSF2 / Fold change vs veh, RASSF2 / RFU, WIPF1 / Fold change vs veh, WIPF1 / RFU, LARP1B / Fold change vs veh, LARP1B / RFU, RASA1 / Fold change vs veh, RASA1 / RFU, RB1 / Fold change vs veh, RB1 / RFU, PPFIA1 / Fold change vs veh, PPFIA1 / RFU, MAT2A / Fold change vs veh, MAT2A / RFU, CCT5 / Fold change vs veh, CCT5 / RFU, WDR92 / Fold change vs veh, WDR92 / RFU, CUX1 / Fold change vs veh, CUX1 / RFU, TTC7A / Fold change vs veh, TTC7A / RFU, TMEM135 / Fold change vs veh, TMEM135 / RFU, DEPTOR / Fold change vs veh, DEPTOR / RFU, CPM / Fold change vs veh, CPM / RFU, DNAJB6 / Fold change vs veh, DNAJB6 / RFU, CACNA2D3 / Fold change vs veh, CACNA2D3 / RFU, DTX4 / Fold change vs veh, DTX4 / RFU, TFCP2 / Fold change vs veh, TFCP2 / RFU, GMCL1 /// GMCL1P1 / Fold change vs veh, GMCL1 /// GMCL1P1 / RFU, AEBP2 / Fold change vs veh, AEBP2 / RFU, SNHG1 /// SNORD22 /// SNORD25 /// SNORD26 /// SNORD27 /// SNORD28 /// SNORD29 /// SNORD31 / Fold change vs veh, SNHG1 /// SNORD22 /// SNORD25 /// SNORD26 /// SNORD27 /// SNORD28 /// SNORD29 /// SNORD31 / Fold change (Aza/veh), C12orf56 (ProbeSet 11735607_a_at) / Fold change (ACY-1035/veh), C12orf56 (ProbeSet 11735607_a_at) / Fold change (Aza/veh), FGFR1OP (ProbeSet 11751329_s_at) / Fold change (ACY-1035/veh), FGFR1OP (ProbeSet 11751329_s_at) / Fold change (Aza/veh), VPS36 (ProbeSet 11739960_a_at) / Fold change (ACY-1035/veh), VPS36 (ProbeSet 11739960_a_at) / RFU SYPL1 (11715823_x_at) / Fold change /veh SYPL1 (11715823_x_at) / RFU IGFBP7 (11715501_s_at) / Fold change /veh IGFBP7 (11715501_s_at) / RFU REEP3 (11722064_at) / Fold change /veh REEP3 (11722064_at) / RFU IGLL1 (11728026_x_at) / Fold change /veh IGLL1 (11728026_x_at): dose or concentration left out as unconfirmed
Conditions: ProbeSet 11731093_s_at; LIST B

Nc1ncn([C@@H]2O[C@H](CO)[C@@H](O)[C@H]2O)c(=O)n1 [azacitidine] was tested, and the “RFU, BRD1” value was 186.03 RFU.

Source: publication PMC5218480 (PLoS ONE, 2017)
